Data as given in the supplement of paper PMC10307832.

How the values were obtained:
Experiment in all cases: relative viability (nuclei count vs DMSO), 5 days (fraction); higher = more cells survive
NCI-H2085 = tested on: NCI-H2085
How it was run: (§1)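 Lung cancer cell lines, seeded in 1536-well plates, were treated the following day by pin tool with a single drug or with five library-drug doses (not always all listed) in √10 steps on top of a fixed anchor-drug dose. Cells were fixed and nuclei stained in one step after 5 days, and nuclei were counted. Relative viability is the nuclei count for treated wells divided by that for vehicle wells, reported as medians of duplicate plates.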

ABC-1 = tested on: ABC-1
How it was run: as §1

LU99A = tested on: LU99A
How it was run: as §1

NCI-H838 = tested on: NCI-H838
How it was run: as §1

LC-2-ad = tested on: LC-2-ad
How it was run: as §1

EPLC-272H = tested on: EPLC-272H
How it was run: as §1

NCI-H2023 = tested on: NCI-H2023
How it was run: as §1

NCI-H1355 = tested on: NCI-H1355
How it was run: as §1

SW 1573 = tested on: SW 1573
How it was run: as §1

NCI-H2347 = tested on: NCI-H2347
How it was run: as §1

NCI-H2126 = tested on: NCI-H2126
How it was run: as §1

NCI-H650 = tested on: NCI-H650
How it was run: as §1

COR-L23 = tested on: COR-L23
How it was run: as §1

HARA = tested on: HARA
How it was run: as §1

HCC-78 = tested on: HCC-78
How it was run: as §1

NCI-H1993 = tested on: NCI-H1993
How it was run: as §1

HCC-15 = tested on: HCC-15
How it was run: as §1

PC-14 = tested on: PC-14
How it was run: as §1

NCI-H358 = tested on: NCI-H358
How it was run: as §1

UMC-11 = tested on: UMC-11
How it was run: as §1

NCI-H1651 = tested on: NCI-H1651
How it was run: as §1

NCI-H1915 = tested on: NCI-H1915
How it was run: as §1

O=C(O)c1ccc(-c2c[nH]c3ncc(-c4ccccc4)cc23)cc1C1CCCC1 + C[C@]1(O)C[C@@H](c2nc(-c3ccc4ccc(-c5ccccc5)nc4c3)c3c(N)nccn32)C1 [Linsitinib] (partner 1 µM)
relative viability (NCI-H2085; first compound 0.04 µM): 0.938 | relative viability (NCI-H2085; first compound 0.1265 µM): 1.01 | relative viability (NCI-H2085; first compound 0.4 µM): 0.8 | relative viability (NCI-H2085; first compound 1.265 µM): 0.644 | relative viability (ABC-1; first compound 0.04 µM): 0.753 | relative viability (ABC-1; first compound 0.1265 µM): 0.808 | relative viability (ABC-1; first compound 0.4 µM): 0.962 | relative viability (ABC-1; first compound 1.265 µM): 0.716 | relative viability (LU99A; first compound 0.04 µM): 0.548 | relative viability (LU99A; first compound 0.1265 µM): 0.528 | relative viability (LU99A; first compound 0.4 µM): 0.533 | relative viability (LU99A; first compound 1.265 µM): 0.511 | relative viability (NCI-H838; first compound 0.04 µM): 1.03 | relative viability (NCI-H838; first compound 0.1265 µM): 1.16 | relative viability (NCI-H838; first compound 0.4 µM): 1.09 | relative viability (NCI-H838; first compound 1.265 µM): 0.997 | relative viability (LC-2-ad; first compound 0.04 µM): 0.81 | relative viability (LC-2-ad; first compound 0.1265 µM): 0.885 | relative viability (LC-2-ad; first compound 0.4 µM): 0.775 | relative viability (LC-2-ad; first compound 1.265 µM): 0.425 | relative viability (EPLC-272H; first compound 0.04 µM): 1.16 | relative viability (EPLC-272H; first compound 0.1265 µM): 1.19 | relative viability (EPLC-272H; first compound 0.4 µM): 1.42 | relative viability (EPLC-272H; first compound 1.265 µM): 0.857 | relative viability (NCI-H2023; first compound 0.04 µM): 0.699 | relative viability (NCI-H2023; first compound 0.1265 µM): 0.665 | relative viability (NCI-H2023; first compound 0.4 µM): 0.734 | relative viability (NCI-H2023; first compound 1.265 µM): 0.676 | relative viability (NCI-H1355; first compound 0.04 µM): 0.848 | relative viability (NCI-H1355; first compound 0.1265 µM): 0.79 | relative viability (NCI-H1355; first compound 0.4 µM): 0.887 | relative viability (NCI-H1355; first compound 1.265 µM): 0.633 | relative viability (SW 1573; first compound 0.04 µM): 0.753 | relative viability (SW 1573; first compound 0.1265 µM): 0.763 | relative viability (SW 1573; first compound 0.4 µM): 0.882 | relative viability (SW 1573; first compound 1.265 µM): 0.569 | relative viability (NCI-H2347; first compound 0.04 µM): 0.975 | relative viability (NCI-H2347; first compound 0.1265 µM): 1.11 | relative viability (NCI-H2347; first compound 0.4 µM): 0.927 | relative viability (NCI-H2347; first compound 1.265 µM): 0.67 | relative viability (NCI-H2126; first compound 0.04 µM): 0.723 | relative viability (NCI-H2126; first compound 0.1265 µM): 0.732 | relative viability (NCI-H2126; first compound 0.4 µM): 0.7 | relative viability (NCI-H2126; first compound 1.265 µM): 0.623 | relative viability (NCI-H650; first compound 0.04 µM): 0.844 | relative viability (NCI-H650; first compound 0.1265 µM): 1.04 | relative viability (NCI-H650; first compound 0.4 µM): 0.861 | relative viability (NCI-H650; first compound 1.265 µM): 0.679 | relative viability (COR-L23; first compound 0.04 µM): 0.866 | relative viability (COR-L23; first compound 0.1265 µM): 0.951 | relative viability (COR-L23; first compound 0.4 µM): 0.771 | relative viability (COR-L23; first compound 1.265 µM): 0.444 | relative viability (HARA; first compound 0.04 µM): 0.905 | relative viability (HARA; first compound 0.1265 µM): 0.983 | relative viability (HARA; first compound 0.4 µM): 0.994 | relative viability (HARA; first compound 1.265 µM): 0.748 | relative viability (HCC-78; first compound 0.04 µM): 0.431 | relative viability (HCC-78; first compound 0.1265 µM): 0.571 | relative viability (HCC-78; first compound 0.4 µM): 0.545 | relative viability (HCC-78; first compound 1.265 µM): 0.534 | relative viability (NCI-H1993; first compound 0.04 µM): 0.745 | relative viability (NCI-H1993; first compound 0.4 µM): 0.681 | relative viability (NCI-H1993; first compound 1.265 µM): 0.753 | relative viability (HCC-15; first compound 0.04 µM): 0.869 | relative viability (HCC-15; first compound 0.1265 µM): 0.928 | relative viability (HCC-15; first compound 0.4 µM): 0.785 | relative viability (HCC-15; first compound 1.265 µM): 0.567 | relative viability (PC-14; first compound 0.04 µM): 0.937 | relative viability (PC-14; first compound 0.1265 µM): 0.947 | relative viability (PC-14; first compound 0.4 µM): 1.01 | relative viability (PC-14; first compound 1.265 µM): 0.798 | relative viability (NCI-H358; first compound 0.04 µM): 0.649 | relative viability (NCI-H358; first compound 0.1265 µM): 0.819 | relative viability (NCI-H358; first compound 0.4 µM): 0.674 | relative viability (NCI-H358; first compound 1.265 µM): 0.386 | relative viability (UMC-11; first compound 0.04 µM): 0.98 | relative viability (UMC-11; first compound 0.1265 µM): 1.04 | relative viability (UMC-11; first compound 0.4 µM): 1.07 | relative viability (UMC-11; first compound 1.265 µM): 0.971 | relative viability (NCI-H1651; first compound 0.04 µM): 0.997 | relative viability (NCI-H1651; first compound 0.1265 µM): 0.968 | relative viability (NCI-H1651; first compound 0.4 µM): 0.912 | relative viability (NCI-H1651; first compound 1.265 µM): 0.781 | relative viability (NCI-H1915; first compound 0.04 µM): 1.06 | relative viability (NCI-H1915; first compound 0.1265 µM): 1.1 | relative viability (NCI-H1915; first compound 0.4 µM): 0.946 | relative viability (NCI-H1915; first compound 1.265 µM): 0.799
